System: 922993-354-T-J3-PDC complex spheroids, viability
Assay: Anticancer human tumor 922993-354-T-J3-PDC patient-derived endometrial carcinoma cell line growth inhibition [GQUAD]
Conditions: for IC50: curve of first compound; for viability, T/C: stronger effect = lower value
In short: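 Tumor cells were grown as complex spheroids with HUVEC endothelial cells and mesenchymal stem cells as stroma. G-quadruplex stabilizers were combined with targeted agents over half-log dilutions from near the clinical Cmax, or from 10 microM.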

[1] = second compound 0.0316 µM, first compound 0.0316 µM
[2] = second compound 0.0316 µM, first compound 0.1 µM
[3] = second compound 0.0316 µM, first compound 0.316 µM
[4] = second compound 0.0316 µM, first compound 1 µM
[5] = second compound 0.0316 µM, first compound 3.16 µM
[6] = second compound 0.0316 µM, first compound 10 µM
[7] = second compound 0.1 µM, first compound 0.0316 µM
[8] = second compound 0.1 µM, first compound 0.1 µM
[9] = second compound 0.1 µM, first compound 0.316 µM
[10] = second compound 0.1 µM, first compound 1 µM
[11] = second compound 0.1 µM, first compound 3.16 µM
[12] = second compound 0.1 µM, first compound 10 µM
[13] = second compound 0.316 µM, first compound 0.0316 µM
[14] = second compound 0.316 µM, first compound 0.1 µM
[15] = second compound 0.316 µM, first compound 0.316 µM
[16] = second compound 0.316 µM, first compound 1 µM
[17] = second compound 0.316 µM, first compound 3.16 µM
[18] = second compound 0.316 µM, first compound 10 µM
[19] = second compound 1 µM, first compound 0.0316 µM
[20] = second compound 1 µM, first compound 0.1 µM
[21] = second compound 1 µM, first compound 0.316 µM
[22] = second compound 1 µM, first compound 1 µM
[23] = second compound 1 µM, first compound 3.16 µM
[24] = second compound 1 µM, first compound 10 µM
[25] = second compound 3.16 µM, first compound 0.0316 µM
[26] = second compound 3.16 µM, first compound 0.1 µM
[27] = second compound 3.16 µM, first compound 0.316 µM
[28] = second compound 3.16 µM, first compound 1 µM
[29] = second compound 3.16 µM, first compound 3.16 µM
[30] = second compound 3.16 µM, first compound 10 µM
[31] = second compound 10 µM, first compound 0.0316 µM
[32] = second compound 10 µM, first compound 0.1 µM
[33] = second compound 10 µM, first compound 0.316 µM
[34] = second compound 10 µM, first compound 1 µM
[35] = second compound 10 µM, first compound 3.16 µM
[36] = second compound 10 µM, first compound 10 µM
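Also: spheroids exposed to compounds for seven days.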
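For viability, T/C in this document: 100% = DMSO vehicle control viability.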

SMILES: COc1ccc([C@@H](O)c2cc(-c3ncnc4cc(N5CCOCC5)ccc34)c(F)cc2Cl)nn1 + Cc1cnc(CNC(=O)c2c(=O)c3ccc(N4CCCN(C)CC4)nc3n3c2sc2ccccc23)cn1
- IC50 (second compound 0.0316 µM): 2.86 µM
- IC50 (second compound 0.1 µM): 1.02 µM
- IC50 (second compound 0.316 µM): 0.456 µM
- IC50 (second compound 1 µM): 3.99 µM
- IC50 (second compound 3.16 µM): 1.83 µM
- IC50 (second compound 10 µM): < 0.0316 µM
- viability, T/C [1]: 84.2%
- viability, T/C [2]: 60.5%
- viability, T/C [3]: 88.1%
- viability, T/C [4]: 66.6%
- viability, T/C [5]: 49.9%
- viability, T/C [6]: 42.9%
- viability, T/C [7]: 79.9%
- viability, T/C [8]: 61.7%
- viability, T/C [9]: 67.7%
- viability, T/C [10]: 44.3%
- viability, T/C [11]: 44.1%
- viability, T/C [12]: 35.6%
- viability, T/C [13]: 66.7%
- viability, T/C [14]: 54.3%
- viability, T/C [15]: 48.1%
- viability, T/C [16]: 52.6%
- viability, T/C [17]: 45.5%
- viability, T/C [18]: 38.1%
- viability, T/C [19]: 57.1%
- viability, T/C [20]: 49.5%
- viability, T/C [21]: 56.7%
- viability, T/C [22]: 57.7%
- viability, T/C [23]: 58.6%
- viability, T/C [24]: 27.1%
- viability, T/C [25]: 51.8%
- viability, T/C [26]: 51%
- viability, T/C [27]: 55.7%
- viability, T/C [28]: 52.3%
- viability, T/C [29]: 47.8%
- viability, T/C [30]: 14.6%
- viability, T/C [31]: 45%
- viability, T/C [32]: 50.7%
- viability, T/C [33]: 46.8%
- viability, T/C [34]: 38.6%
- viability, T/C [35]: 30.3%
- viability, T/C [36]: 4.3%

SMILES: Nc1ccn(C2OC(CO)C(O)C2(F)F)c(=O)n1 (stereo unspecified) + Cc1cnc(CNC(=O)c2c(=O)c3ccc(N4CCCN(C)CC4)nc3n3c2sc2ccccc23)cn1
- IC50 (second compound 0.0316 µM): < 0.0316 µM
- IC50 (second compound 0.1 µM): < 0.0316 µM
- IC50 (second compound 0.316 µM): < 0.0316 µM
- IC50 (second compound 1 µM): < 0.0316 µM
- IC50 (second compound 3.16 µM): < 0.0316 µM
- IC50 (second compound 10 µM): < 0.0316 µM
- viability, T/C [1]: 29.4%
- viability, T/C [2]: 28.8%
- viability, T/C [3]: 23.6%
- viability, T/C [4]: 21.1%
- viability, T/C [5]: 23.4%
- viability, T/C [6]: 21.7%
- viability, T/C [7]: 26.3%
- viability, T/C [8]: 23.9%
- viability, T/C [9]: 29.4%
- viability, T/C [10]: 21.7%
- viability, T/C [11]: 25.2%
- viability, T/C [12]: 27.2%
- viability, T/C [13]: 34.3%
- viability, T/C [14]: 34.5%
- viability, T/C [15]: 30.5%
- viability, T/C [16]: 30.3%
- viability, T/C [17]: 31.5%
- viability, T/C [18]: 27.8%
- viability, T/C [19]: 38.1%
- viability, T/C [20]: 50.9%
- viability, T/C [21]: 54.8%
- viability, T/C [22]: 34.6%
- viability, T/C [23]: 46.1%
- viability, T/C [24]: 39.4%
- viability, T/C [25]: 39.6%
- viability, T/C [26]: 45%
- viability, T/C [27]: 48.3%
- viability, T/C [28]: 38%
- viability, T/C [29]: 56.3%
- viability, T/C [30]: 41.8%
- viability, T/C [31]: 45.1%
- viability, T/C [32]: 33.5%
- viability, T/C [33]: 44.8%
- viability, T/C [34]: 41.2%
- viability, T/C [35]: 39.2%
- viability, T/C [36]: 33.4%

SMILES: CC1COCCN1c1cc(C2(S(C)(=N)=O)CC2)nc(-c2ccnc3[nH]ccc23)n1 (stereo unspecified) + Cc1cnc(CNC(=O)c2c(=O)c3ccc(N4CCCN(C)CC4)nc3n3c2sc2ccccc23)cn1
- IC50 (second compound 0.0316 µM): 7.86 µM
- IC50 (second compound 0.1 µM): 5.47 µM
- IC50 (second compound 0.316 µM): 0.172 µM
- IC50 (second compound 1 µM): > 10 µM
- IC50 (second compound 3.16 µM): > 10 µM
- IC50 (second compound 10 µM): < 0.0316 µM
- viability, T/C [1]: 87.9%
- viability, T/C [2]: 79.4%
- viability, T/C [3]: 82.8%
- viability, T/C [4]: 67.9%
- viability, T/C [5]: 91.5%
- viability, T/C [6]: 41.6%
- viability, T/C [7]: 70.4%
- viability, T/C [8]: 63.5%
- viability, T/C [9]: 55.2%
- viability, T/C [10]: 61%
- viability, T/C [11]: 66%
- viability, T/C [12]: 35.5%
- viability, T/C [13]: 59.9%
- viability, T/C [14]: 50.7%
- viability, T/C [15]: 50.9%
- viability, T/C [16]: 38.8%
- viability, T/C [17]: 50.5%
- viability, T/C [18]: 39.2%
- viability, T/C [19]: 46.3%
- viability, T/C [20]: 60.1%
- viability, T/C [21]: 51.7%
- viability, T/C [22]: 45.2%
- viability, T/C [23]: 48.5%
- viability, T/C [24]: 53.3%
- viability, T/C [25]: 49.1%
- viability, T/C [26]: 52.8%
- viability, T/C [27]: 54.4%
- viability, T/C [28]: 48%
- viability, T/C [29]: 54.4%
- viability, T/C [30]: 52.5%
- viability, T/C [31]: 51.8%
- viability, T/C [32]: 42.9%
- viability, T/C [33]: 54%
- viability, T/C [34]: 50.6%
- viability, T/C [35]: 47.3%
- viability, T/C [36]: 53.6%

Reference: PubChem BioAssay AID2060489 (Molecular Pharmacology Branch, DTP, NCI, 2025)
